Reference: ChEMBL document CHEMBL3259750, “The antibacterial properties of sulfur containing flavonoids” (2014)
Activity calls are given as the source filed them. The calls are words filed in the database; no cut-off is given here.

Columns and labels:
Staphylococcus aureus [1] = assay: Antibacterial activity against Staphylococcus aureus ATCC 25923 assessed as growth inhibition after 18 hrs by colorimetric microdilution technique; format: functional; conditions: ATCC 25923, 18 h
Escherichia coli [2] = assay: Antibacterial activity against Escherichia coli ATCC 25922 assessed as diameter of growth inhibition zone at 0.25 mg/ml after 24 hrs by disk diffusion assay; format: functional; conditions: for zone of inhibition at 250 µg/mL: ATCC 25922, 24 h, read-out: DIZ
Staphylococcus aureus [3] = assay: Antibacterial activity against Staphylococcus aureus ATCC 25923 assessed as diameter of growth inhibition zone at 1 mg/ml after 24 hrs by disk diffusion assay; format: functional; conditions: for zone of inhibition at 1000 µg/mL: ATCC 25923, 24 h, read-out: DIZ
Escherichia coli [4] = assay: Antibacterial activity against Escherichia coli ATCC 25922 assessed as growth inhibition after 18 hrs by colorimetric microdilution technique; format: functional; conditions: ATCC 25922, 18 h
Staphylococcus aureus [5] = assay: Antibacterial activity against Staphylococcus aureus ATCC 25923 assessed as diameter of growth inhibition zone at 0.25 mg/ml after 24 hrs by disk diffusion assay; format: functional; conditions: for zone of inhibition at 250 µg/mL: ATCC 25923, 24 h, read-out: DIZ
Escherichia coli [6] = assay: Antibacterial activity against Escherichia coli ATCC 25922 assessed as diameter of growth inhibition zone at 0.5 mg/ml after 24 hrs by disk diffusion assay; format: functional; conditions: for zone of inhibition at 500 µg/mL: ATCC 25922, 24 h, read-out: DIZ
Escherichia coli [7] = assay: Antibacterial activity against Escherichia coli ATCC 25922 assessed as diameter of growth inhibition zone at 1 mg/ml after 24 hrs by disk diffusion assay; format: functional; conditions: for zone of inhibition at 1000 µg/mL: ATCC 25922, 24 h, read-out: DIZ
Staphylococcus aureus [8] = assay: Antibacterial activity against Staphylococcus aureus ATCC 25923 assessed as diameter of growth inhibition zone at 0.5 mg/ml after 24 hrs by disk diffusion assay; format: functional; conditions: for zone of inhibition at 500 µg/mL: ATCC 25923, 24 h, read-out: DIZ
Candida albicans = assay: Antifungal activity against Candida albicans ATCC 90028; format: functional, organism-based
Staphylococcus aureus [9] = assay: Antibacterial activity against Staphylococcus aureus ATCC 25923 assessed as diameter of growth inhibition zone at 10 ug/disk after 24 hrs by disk diffusion assay; format: functional, organism-based
Escherichia coli [10] = assay: Antibacterial activity against Escherichia coli ATCC 25922 assessed as diameter of growth inhibition zone at 10 ug/disk after 24 hrs by disk diffusion assay; format: functional, organism-based

Compound	MIC (Staphylococcus aureus [1]) [µg/mL]	zone of inhibition at 1000 µg/mL (Staphylococcus aureus [3]) [mm]	MIC (Escherichia coli [4]) [µg/mL]	zone of inhibition at 250 µg/mL (Staphylococcus aureus [5]) [mm]	zone of inhibition at 500 µg/mL (Staphylococcus aureus [8]) [mm]	diameter of the inhibition zone (DIZ) (Escherichia coli [2])	diameter of the inhibition zone (DIZ) (Staphylococcus aureus [3])	diameter of the inhibition zone (DIZ) (Staphylococcus aureus [5])	diameter of the inhibition zone (DIZ) (Escherichia coli [6])	diameter of the inhibition zone (DIZ) (Escherichia coli [7])	diameter of the inhibition zone (DIZ) (Staphylococcus aureus [8])	further results
CCN(CC)[c+]1sc2c(s1)C(c1ccc(Cl)cc1)Oc1c(I)cc(I)cc1-2.[O-][Cl+3]([O-])([O-])[O-] (stereo not given)	1.95	16.7	7.81	8.33	14							zone of inhibition at 250 µg/mL (Escherichia coli [2]): 7.66 mm; zone of inhibition at 500 µg/mL (Escherichia coli [6]): 8.33 mm; zone of inhibition at 1000 µg/mL (Escherichia coli [7]): 9.33 mm
CCN(CC)[c+]1sc2c(s1)C(c1ccc(Cl)cc1)Oc1c(I)cc(I)cc1-2.F[B-](F)(F)F (stereo not given)	0.97		15.6									
CCN(CC)C(=S)SC1C(=O)c2cc(I)cc(I)c2OC1c1ccc(Cl)cc1 (stereo not given)						inactive	inactive	inactive	inactive	inactive	inactive	
CCN(CC)C(=S)SC1C(=O)c2cc(Br)cc(Br)c2OC1c1ccc(Cl)cc1 (stereo not given)						inactive	inactive	inactive	inactive	inactive	inactive	
CCN(CC)C(=S)SC1C(=O)c2ccccc2OC1c1ccc(Cl)cc1 (mixture of isomers)						inactive	inactive	inactive	inactive	inactive	inactive	
CCN(CC)[c+]1sc2c(s1)C(c1ccc(OC)cc1)Oc1ccc(Br)cc1-2.F[B-](F)(F)F (stereo not given)	1.95		125									
CCN(CC)[c+]1sc2c(s1)C(c1ccc(Cl)cc1)Oc1ccc(Br)cc1-2.F[B-](F)(F)F (stereo not given)	0.48		3.9									
CCN(CC)C(=S)SC1C(=O)c2cc(Br)ccc2OC1c1ccc(Cl)cc1 (stereo not given)						inactive	inactive	inactive	inactive	inactive	inactive	
CCN(CC)[c+]1sc2c(s1)C(c1ccc(Cl)cc1)Oc1ccccc1-2.F[B-](F)(F)F (stereo not given)	1.95	16.3	62.5	7.33	14.3	inactive			inactive	inactive		Activity (Candida albicans): Active
GENTAMICIN												inhibition zone (IZ) (Staphylococcus aureus [9]): 18.3 mm; inhibition zone (IZ) (Escherichia coli [10]): 15.8 mm
CCN(CC)[c+]1sc2c(s1)C(c1ccc(Cl)cc1)Oc1ccc(Br)cc1-2.[O-][Cl+3]([O-])([O-])[O-] (stereo not given)	0.48	20.3	3.9	15	17.3							zone of inhibition at 250 µg/mL (Escherichia coli [2]): 8.33 mm; zone of inhibition at 500 µg/mL (Escherichia coli [6]): 10.7 mm; zone of inhibition at 1000 µg/mL (Escherichia coli [7]): 11.7 mm
CCN(CC)[c+]1sc2c(s1)C(c1ccc(Cl)cc1)Oc1c(Br)cc(Br)cc1-2.F[B-](F)(F)F (stereo not given)	1.95	21.3	7.81	17.7	18.7	inactive			inactive			Activity (Candida albicans): Active; zone of inhibition at 1000 µg/mL (Escherichia coli [7]): 10.7 mm
CCN(CC)C(=S)SC1C(=O)c2cc(Br)ccc2OC1c1ccc(OC)cc1 (mixture of isomers)						inactive	inactive	inactive	inactive	inactive	inactive	
CCN(CC)[c+]1sc2c(s1)C(c1ccc(OC)cc1)Oc1ccc(Br)cc1-2.[O-][Cl+3]([O-])([O-])[O-] (stereo not given)	3.9	13.7	125	7.66	9.66							zone of inhibition at 250 µg/mL (Escherichia coli [2]): 6.66 mm; zone of inhibition at 500 µg/mL (Escherichia coli [6]): 7.33 mm; zone of inhibition at 1000 µg/mL (Escherichia coli [7]): 7.66 mm
